Source: publication PMC9435431, “Novel chemical entities inhibiting Mycobacterium tuberculosis growth identified by phenotypic high-throughput screening” (Scientific Reports, 2022)
In brackets after ≈: the same amount, converted by molar mass. Where two headings read alike, the source gives them in different places.

How the values were obtained:
[1] = tested on: wild-type M. tuberculosis; test: microbe, parasite or virus in culture; format: cell-based, Mycobacterium tuberculosis; conditions: for MIC / IC90: Mycobacterium tuberculosis
M. tuberculosis H37Rv = test: microbe, parasite or virus in culture; format: cell-based; conditions: Mycobacterium tuberculosis, 120 h
in vitro [2] = format: cell-based; conditions: human
Experimental: HepG2 cells were seeded at 2000 cells per well in 384-well, black, clear bottom PDL coated plates in MEM medium supplemented with 10% FBS, 2 mM L-glutamine, 1 mM sodium pyruvate and incubated overnight at 37C, 5% CO2. Compounds were added and plates incubated for 72 h. Cell viability was measured using the CyQUANT® reagent and imaging on a ViewLux™ ultraHTS Microplate Imager. The IC20 and IC50 were calculated from dose response curves.

in vitro [3] = format: in vitro ADME, human; conditions: for microsomal clearance / stability (in words): human microsomes; for CLint scaled at 0.5 µM: human, microsomes, pH 7.4, human Clint
Experimental: Compounds (0.5 µM) were incubated with 0.25 mg/mL liver microsomal proteins at pH 7.4 at 37 °C. Reactions were initiated with […] and samples taken at 0, 5, 10, 15, 20 and 30 min. The reaction was stopped by addition of 95% ACN/5% MeOH containing an internal standard. Samples were combined in compound groups of six pre-sorted by mono molecular weight and analyzed by LC/MS/MS. The peak area ratios (analyte peak area/IS peak area) were converted to % remaining using the area ratio at time 0 as 100%. The. half-life (T ½) and intrinsic clearance (mCLint) were calculated.

[4] = Table 5, read-out: Wild-type MIC

Compound	inhibition at 20 µM (M. tuberculosis H37Rv; read-out: % Inhibition Run 1)	inhibition at 20 µM (M. tuberculosis H37Rv; read-out: % Inhibition Run 2)	MIC ([1]; read-out: MTB MIC)	IC20 at 72 h (in vitro [2])	MIC ([1]; 120 h, read-out: MIC)	microsomal clearance / stability (in words) (in vitro [3])	CLint scaled at 0.5 µM (in vitro [3])	further results
c1ccc(-c2cncc(N3CC4CC5CC3CN(C5)C4)c2)cc1 (centres unmarked) [AAP]	99%	97%						MIC ([1]; 120 h, read-out: MTB MIC): 23 µM (≈ 7.02 µg/mL); IC20 (in vitro [2]; concentration for 20% inhibition of HepG2 cells, 72 h, n = 2): 27 µM
CC(=O)n1cc(Nc2ccccc2O)c2ccccc21 [ACI-2]	100%	100%	4.5 µM (≈ 1.2 µg/mL)	30 µM				
O=C(c1c(Cl)cccc1Cl)N1COCN(c2ccc(C(F)(F)F)cc2)C1=O [ACU-1]	98%	98%	7.6 µM (≈ 3.19 µg/mL)	65 µM				
c1ccc(N2CCN(Cc3cnc4ccccc4n3)CC2)cc1 [AMQ-5]	98%	99%	7.8 µM (≈ 2.37 µg/mL)	2 µM				
Clc1ccc(-c2nc(Cn3ccnc3)cs2)cc1 [AMT-1]	98%	96%	35 µM (≈ 9.65 µg/mL)	34 µM				
CNc1cc(-c2ccccn2)nc(-c2ccccn2)n1 [APDP-1]	99%	100%	10 µM (≈ 2.63 µg/mL)	0.028 µM				IC90 [1]: 10 µM
O=S(=O)(Nc1ccccc1-c1nn[nH]n1)c1ccc(OC(F)(F)F)cc1 [APT]	99%	99%	6.9 µM (≈ 2.66 µg/mL)	0.47 µM				
N#C/C(=C\NC1CCCCC1)c1nc2ccccc2[nH]1 [BCI-2]	100%	100%	9.6 µM (≈ 2.56 µg/mL)	0.85 µM				
CCC(=O)Nc1nc(-c2nc3ccccc3oc2=O)cs1 [BOZ]	99%	100%	4.8 µM (≈ 1.45 µg/mL)	37 µM				
Cc1cnc(-n2nnc3ccccc3c2=O)s1 [BTT]	100%	100%	4.8 µM (≈ 1.17 µg/mL)	37 µM				
Nc1ccnc(Nc2ccccc2Nc2ccccc2)n1 [DAP]	99%	99%	0.7 µM (≈ 0.194 µg/mL)	0.83 µM				
NCC(c1ccco1)S(=O)(=O)c1ccccc1 (centres unmarked) [FAS]	100%	100%	9.5 µM (≈ 2.39 µg/mL)	2 µM				
O=C(Nc1nc2ccccc2s1)NC1C2CC3CC(C2)CC1C3 (centres unmarked) [HBU-1]	100%	100%		8.2 µM				IC90 [1]: 4.2 µM; MIC ([1]; 120 h, read-out: MTB MIC): 4.2 µM (≈ 1.38 µg/mL)
CNC(=O)N(O)C1c2cccc(F)c2Oc2ccsc21 (centres unmarked) [HDU-2]	99%	100%	19 µM (≈ 5.59 µg/mL)	42 µM				
CN(CCc1cccc(Br)c1)C(=O)C1(c2ccccc2)CCC1 [PCB-14, N-(3-bromophenethyl)-N-methyl-1-phenylcyclobutane-1-carboxamide]					> 20 µM	highly metabolized	447 L/h/kg	anti-tubercular activity (in words) [1]: inactive
O=C(NCCc1cccc(Br)c1)C1(c2ccc(Cl)cc2)CCC1 [PCB-15, N-(3-bromophenethyl)-1-(4-chlorophenyl)cyclobutane-1-carboxamide]					9.7 ± 6.7 µM (≈ 3.81 µg/mL)	clearances increased	559 L/h/kg	anti-tubercular activity (in words) [1]: slight reduction
O=C(NCCc1cccc(Br)c1)C1(c2cccc(Cl)c2)CCC1 [PCB-16, N-(3-bromophenethyl)-1-(3-chlorophenyl)cyclobutane-1-carboxamide]					5 ± 1.6 µM (≈ 1.96 µg/mL)	clearances increased	552 L/h/kg	anti-tubercular activity (in words) [1]: little change; MIC [1, 4]: 5 µM (≈ 1.96 µg/mL)
O=C(NCCc1cccc(Br)c1)C1(c2ccccc2Cl)CCC1 [PCB-17, N-(3-bromophenethyl)-1-(2-chlorophenyl)cyclobutane-1-carboxamide]					1.8 ± 0.7 µM (≈ 0.707 µg/mL)	clearances increased	673 L/h/kg	anti-tubercular activity (in words) [1]: increase in activity; MIC [1, 4]: 1.8 µM (≈ 0.707 µg/mL)
O=C(NCCc1cccc(Br)c1)C1(c2ccc(Cl)cc2Cl)CCC1 [PCB-18, N-(3-bromophenethyl)-1-(2,4-dichlorophenyl)cyclobutane-1-carboxamide]					13 ± 5 µM (≈ 5.55 µg/mL)	very low stability	1690 L/h/kg	anti-tubercular activity (in words) [1]: low antitubercular activity
O=C(NCCc1cccc(Br)c1)C1(c2ccccc2F)CCC1 [PCB-20, N-(3-bromophenethyl)-1-(2-fluorophenyl)cyclobutane-1-carboxamide]					5.5 ± 2.1 µM (≈ 2.07 µg/mL)	very poor microsomal stability	263 L/h/kg	
O=C(NCCc1cccc(Br)c1)C1(c2ccccc2C(F)(F)F)CCC1 [PCB-22, N-(3-bromophenethyl)-1-(2-(trifluoromethyl)phenyl)cyclobutane-1-carboxamide]					5.7 ± 2.8 µM (≈ 2.43 µg/mL)		975 L/h/kg	
Cc1ccccc1C1(C(=O)NCCc2cccc(Br)c2)CCC1 [PCB-23, N-(3-bromophenethyl)-1-(o-tolyl)cyclobutane-1-carboxamide]					1.3 ± 0.5 µM (≈ 0.484 µg/mL)		391 L/h/kg	MIC [1, 4]: 1.3 µM (≈ 0.484 µg/mL); MIC ([1]; read-out: MIC): 1.3 µM (≈ 0.484 µg/mL)
O=C(NCCc1cccc(Br)c1)C1(c2ccccc2)CC(F)(F)C1 [PCB-24, N-(3-bromophenethyl)-3,3-difluoro-1-phenylcyclobutane-1-carboxamide]					15 ± 3.7 µM (≈ 5.91 µg/mL)	poor microsomal stability	263 L/h/kg	MIC ([1]; read-out: MIC): 15 µM (≈ 5.91 µg/mL)
O=C(NCCc1cccc(Br)c1)C1(c2ccccc2)COC1 [PCB-25, N-(3-bromophenethyl)-3-phenyloxetane-3-carboxamide]					12 ± 2.8 µM (≈ 4.32 µg/mL)	some improvement in clearance	20 L/h/kg	MIC ([1]; read-out: MIC): 12 µM (≈ 4.32 µg/mL)
COc1ccc(CCNC(=O)C2(c3ccc(F)cc3)CCC2)cc1Br [PCB-26, N-(3-bromo-4-methoxyphenethyl)-1-(4-fluorophenyl)cyclobutane-1-carboxamide]					2.8 ± 0.1 µM (≈ 1.14 µg/mL)	at the expense of clearance	149 L/h/kg	MIC ([1]; read-out: MIC): 2.8 µM (≈ 1.14 µg/mL)
COc1ccc(CCNC(=O)C2(c3ccccc3Cl)CCC2)cc1-c1ccccc1 [PCB-27, 1-(2-chlorophenyl)-N-(2-(6-methoxy-[1,1'-biphenyl]-3-yl)ethyl)cyclobutane-1-carboxamide]					3.6 ± 1.3 µM (≈ 1.51 µg/mL)	much higher clearance	1680 L/h/kg	
O=C(NCCc1cccc(C(F)(F)F)c1)C1(c2ccccc2)COC1 [PCB-28, 3-phenyl-N-(3-(trifluoromethyl)phenethyl)oxetane-3-carboxamide]					9.1 ± 0.8 µM (≈ 3.18 µg/mL)	improved clearance	13.9 L/h/kg	anti-tubercular activity (in words) [1]: loss in activity
Cc1ccccc1C1(C(=O)NCCc2cccc(C(F)(F)F)c2)CCC1 [PCB-29, 1-(o-tolyl)-N-(3-(trifluoromethyl)phenethyl)cyclobutane-1-carboxamide]					0.45 ± 0.01 µM (≈ 0.163 µg/mL)	increase in clearance	883 L/h/kg	MIC ([1]; read-out: MIC): 0.45 µM (≈ 0.163 µg/mL)
O=C(NCCc1cccc(C(F)(F)F)c1)C1(c2ccc(F)cc2)CCC1 [PCB-30, 1-(4-fluorophenyl)-N-(3-(trifluoromethyl)phenethyl)cyclobutane-1-carboxamide]					0.99 ± 0.3 µM (≈ 0.362 µg/mL)	significantly improved clearance	121 L/h/kg	anti-tubercular activity (in words) [1]: slight reduction in activity
